In one assay the target is ADC-7 (Acinetobacter baumannii, UniProt Q6DRA1). The experiment in a line: Steady-state inhibitor kinetics. Format: biochemical. The conditions noted are these: for lower Ki app values compared to those of avibactam and relebactam: ADC-7.
The next assay deals with PDC-3 (Pseudomonas aeruginosa, UniProt P24735, T105A). Format: biochemical.
For a further assay, the target named is OXA-23 (Acinetobacter baumannii, UniProt Q9L4P2). The experiment in a line: Steady-state inhibitor kinetics. The assay is classed as biochemical, A. baumannii.
In the next assay the target is OXA-24/40 (Acinetobacter baumannii, UniProt Q8RLA6). The experiment in a line: biochemical. Set-up: species or system A. baumannii.
Assay [1] deals with KPC-2 (donor) and TEM-1 (recipient). The experiment in a line: Acyl-transfer ESI-MS, KPC-2 donor to TEM-1 recipient. To be noted: equimolar KPC-2:DBO preincubated 1 min, then equimolar TEM-1. The assay is classed as biochemical.
In assay [2] the test system is Enterobacteriaceae that expressed blaOXA-48 or blaOXA-48 mutants. The assay is classed as cell-based. To be noted: for MIC: Escherichia coli, E. coli Jefferson 17,75 OXA-48, agent alone.
For the next assay, the system named is A. baumannii SL04. In words: MIC against clinical isolate A. baumannii SL04. Format: cell-based.
Assay [3] deals with T1, KPC-2 (Klebsiella pneumoniae, UniProt Q9F663). The experiment in a line: biochemical.
The test system of assay [4] is TEM-1 (donor) and CTX-M-15 (recipient). To be noted: cited from earlier work.
Assay [5] has as its system E. coli DH10B expressing a single β-lactamase. The assay is classed as cell-based. To be noted: Escherichia coli, agent alone.
The next assay relates to A. baumannii NCTC 13303. In words: MIC against A. baumannii NCTC 13303. The assay is classed as cell-based.
The next assay relates to A. baumannii SL46. The experiment in a line: MIC against A. baumannii SL46. The conditions noted are these: Acinetobacter baumannii. The assay is classed as cell-based.
Assay [6] relates to Escherichia coli DH10B (control). The experiment in a line: MIC, broth microdilution, Escherichia coli DH10B. Format: cell-based.
Assay [7] concerns the target T1, KPC-2. The conditions noted are these: at 15 min; cited from earlier work.
The test system of assay [8] is E. coli DH10B with pBR322-catI-blaKPC-2. In words: MIC, broth microdilution, isogenic E. coli DH10B with pBR322-catI-blaKPC-2. The assay is classed as cell-based. To be noted: Escherichia coli, β-lactam alone; E. coli DH10B pBR322-catI-blaKPC-2.
Assay [9] has as its system A. baumannii ΔblaADC with pWH1266 blaOXA-23. The experiment in a line: MIC, broth microdilution, isogenic A. baumannii ΔblaADC with pWH1266 blaOXA-23. Format: cell-based. The conditions noted are these: Acinetobacter baumannii, β-lactam alone; A. baumannii ΔblaADC pWH1266 blaOXA-23.
The test system of assay [10] is A. baumannii ΔblaADC with pWH1266 blaOXA-24/40. The assay is classed as cell-based. To be noted: Acinetobacter baumannii, β-lactam alone; A. baumannii ΔblaADC pWH1266 blaOXA-24.
Another assay relates to A. baumannii NCTC 13301. The experiment in a line: MIC against A. baumannii NCTC 13301. Format: cell-based.
Another assay concerns A. baumannii AADC. In words: MIC, broth microdilution, A. baumannii ΔblaADC parent strain. Format: cell-based. To be noted: Acinetobacter baumannii.
For the next assay, the target named is CMY-2. To be noted: cited from earlier work.
For assay [11], the system named is A. baumannii strains (NCTC 13301, NCTC 13303, SL46). In words: Murine peritonitis model, summary over the three A. baumannii strains. The assay is classed as in vivo. The conditions noted are these: supra-therapeutic doses, 6.25 mg/kg administered as two doses.
The mark [12] stands for this setting: E. coli DH10B pBC SIC (−) KPC-2.
Where [13] appears, read: E. coli DHIOB pBC SIC (−) PDC-3.
Setting [14] is: Acinetobacter baumannii, NCTC13303.
The mark [15] stands for this setting: Acinetobacter baumannii, NCTC13301.

The source of these data is article PMC6131718 (Journal of medicinal chemistry, 2018).

In brackets after ≈: the same amount, converted by molar mass. Where two headings read alike, the source gives them in different places.

As for `O=C(NNC(=O)[C@@H]1CC[C@@H]2CN1C(=O)N2OS(=O)(=O)O)[C@@H]1CCNC1` [Compound 1, (2S,5R)-6-Sulfooxy-7-oxo-2-[((3R)-pyrrolidine-3-carbonyl)hydrazinocarbonyl]-1,6-diazabicyclo[3.2.1]octane], the entries for the “lower Ki app values compared to those of avibactam and relebactam” value on ADC-7 and at PDC-3 were 3–8 fold and 18–25 fold, respectively. The Ki on OXA-23 and on OXA-24/40 was above 100 µM throughout. The “time required for transfer from KPC-2 to TEM-1” value in assay [1] is given as 5 min. The MIC in assay [2] was above 16 µg/mL.
Turning to `O=C(NNC(=O)[C@@H]1CC[C@@H]2CN1C(=O)N2OS(=O)(=O)O)[C@@H]1CCCNC1` [Compound 2, (2S,5R)-6-Sulfooxy-7-oxo-2-[((3R)-piperidine-3-carbonyl)hydrazinocarbonyl]-1,6-diazabicyclo[3.2.1]octane], the “lower Ki app values compared to those of avibactam and relebactam” value on ADC-7 is listed as 3–8 fold; at PDC-3 it was 18–25 fold. Moreover, the Ki on OXA-23 and at OXA-24/40 was above 100 µM each time. In addition, the “time required for transfer from KPC-2 to TEM-1” value in assay [1] worked out at 5 min. Besides, the MIC in assay [2] is above 16 µg/mL; in the assay with A. baumannii SL04 (Acinetobacter baumannii, SL04) it was at least 512 µg/mL.
For the compound `N#C[C@@H]1CC[C@@H]2CN1C(=O)N2OS(=O)(=O)[O-].[Na+]` [Compound 3, (2S,5R)-1,6-Diazabicyclo[3.2.1]octane-2-carbonitrile-7-oxo-6-(sulfooxy)-monosodium Salt], the Kd amounted to 0.0019 ± 0.0002 µM at KPC-2 [3], 0.053 ± 0.007 µM at ADC-7, 0.029 ± 0.004 µM on OXA-23 and 0.042 ± 0.006 µM at OXA-24/40. The inhibition constant (Ki) turned out to be 0.32 ± 0.03 µM at KPC-2 [3], 8 ± 0.8 µM on ADC-7, 8 ± 1 µM at OXA-23 and 5 ± 0.5 µM on OXA-24/40. Also, the “time for transfer from KPC-2 to TEM-1” value in assay [1] is at most 15 s.
On to `NC(=O)[C@@H]1CC[C@@H]2CN1C(=O)N2OS(=O)(=O)O` [avibactam], for which the “time of maximum transfer from TEM-1 to CTX-M-15” value in assay [4] is 30 min.
Regarding `CO/N=C(\C(=O)N[C@@H]1C(=O)N2C(C(=O)[O-])=C(C[N+]3(C)CCCC3)CS[C@H]12)c1csc(N)n1` [cefepime], the MIC is 0.5 µg/mL (≈ 1.04 µM) in [5] (setting [12]); below 0.12 µg/mL in [5] (E. coli DHIOB pBC SIC (−) OXA-48); below 0.12 µg/mL in assay [5] (setting [13]); 64 µg/mL (≈ 133 µM) with A. baumannii NCTC 13303 (setting [14]); above 512 µg/mL in the assay with A. baumannii SL46; below 0.12 µg/mL in assay [6].
Regarding `O=C(O)[C@H]1/C(=C/CO)O[C@@H]2CC(=O)N21` [clavulanic acid], the “turnover number (tn)” value at KPC-2 [7] was 2,500.
Turning to `C[C@@H](O)[C@H]1C(=O)N2C(C(=O)O)=C(S[C@@H]3CN[C@H](C(=O)N(C)C)C3)[C@H](C)[C@H]12` [meropenem], the MIC is at least 8 µg/mL in [8]; at least 8 µg/mL in assay [9]; at least 8 µg/mL in assay [10]; below 0.12 µg/mL in assay [5] (setting [12]); below 0.12 µg/mL in assay [5] (setting [13]); 32 µg/mL (≈ 83.4 µM) with A. baumannii NCTC 13301 (setting [15]). For the same compound, the MIC is 256 µg/mL (≈ 668 µM) in the assay with A. baumannii NCTC 13303 (setting [14]), below 0.12 µg/mL in assay [6] and below 0.12 µg/mL in the assay with A. baumannii AADC.
For the compound `O.O=C(NC1CCNCC1)[C@@H]1CC[C@@H]2CN1C(=O)N2OS(=O)(=O)O` [relebactam], the Ki at OXA-23 and on OXA-24/40 was above 100 µM each time. In assay [2] (clinical isolates of Enterobacteriaceae expressing blaOXA-48 or mutants), the “restoration of susceptibility to cefepime and meropenem” value is reported as “less effective”.
Turning to `C[C@]1(Cn2ccnn2)[C@H](C(=O)O)N2C(=O)C[C@H]2S1(=O)=O` [tazobactam], the Ki on CMY-2 is 40 µM.
`CN(C)c1cc(NC(=O)CNC(C)(C)C)c(O)c2c1C[C@H]1C[C@H]3[C@H](N(C)C)C(O)=C(C(N)=O)C(=O)[C@@]3(O)C(O)=C1C2=O` [tigecycline]: the MIC against A. baumannii NCTC 13301 (setting [15]) and with A. baumannii NCTC 13303 (setting [14]) was 1 µg/mL (≈ 1.71 µM) throughout. For the same compound, in [11], the “protection of infected mice” value was “failed to protect infected mice”.
For colistin, the MIC in the assay on A. baumannii NCTC 13301 (A. baumannii NCTC 13301, 3 at a fixed 8 μg/mL, cefepime-2 at 1:1 ratio) came out at 1 µg/mL; in the assay on A. baumannii NCTC 13303 (A. baumannii NCTC 13303, 3 at a fixed 8 μg/mL, cefepime-2 at 1:1 ratio), 0.5 µg/mL; against A. baumannii SL04 (A. baumannii SL04 carrying blaOXA-23 and blaOXA-51), 2 µg/mL.
